Like-named read-outs stand apart in the source and are kept apart here. Marks after values point to notes of the source that are not given here.
CCOC(=O)C(C#N)=C(NC(C)c1nccs1)c1conc1C (centres unmarked) [Compound 77]
Log P (pH 2.7): 2.4^[a]

CCOC(=O)C(C#N)=C(NC(C)Cc1c[nH]c2ccccc12)c1conc1C (centres unmarked) [Compound 78]
Log P (pH 2.7): 3.15^[a]

CCOC(=O)C(C#N)=C(NC(C)c1nccs1)c1cccnc1F (centres unmarked) [Compound 79]
Log P (pH 2.3): 2.47
Log P (pH 7.5): 2.32

CCOC(=O)C(C#N)=C(NCc1nccs1)c1c(C)nn(C)c1F [Compound 80]
Log P (pH 2.7): 2.01^[a]

CCOC(=O)C(C#N)=C(NCc1ccccn1)c1conc1C [Compound 81]
Log P (pH 2.7): 1.96^[a]

CCOC(=O)C(C#N)=C(NC(C)c1ccccn1)c1conc1C (centres unmarked) [Compound 82]
Log P (pH 2.7): 2.36^[a]

COC(=O)C(C#N)=C(NCc1nccs1)c1ncc(C(F)(F)F)cc1Cl [Compound 83]
Log P (pH 2.7): 2.63^[a]

CCOC(=O)C(C#N)=C(NC(C)Cn1cncn1)c1cccnc1Cl (centres unmarked) [Compound 84]
Log P (pH 7.5): 1.59

CCOC(=O)C(C#N)=C(NC(C)c1nccs1)c1sccc1Br (centres unmarked) [Compound 85]
Log P (pH 2.7): 3.13^[a]

CCOC(=O)C(C#N)=C(NCc1nccs1)c1c(C)nn(C)c1Cl [Compound 86]
Log P (pH 2.7): 2.13^[a]

CCOC(=O)C(C#N)=C(NCc1ccccn1)c1c(C)nn(C)c1Cl [Compound 87]
Log P (pH 2.7): 2.02^[a]

CCOC(=O)C(C#N)=C(NCc1nccs1)c1sccc1Br [Compound 88]
Log P (pH 2.7): 2.67^[a]

C=CCOC(=O)C(C#N)=C(NC(C)c1nccs1)c1cccnc1Cl (centres unmarked) [Compound 89]
Log P (pH 7.5): 2.56

CCOC(=O)C(C#N)=C(NC(C)Cc1c[nH]c2ccccc12)c1sccc1Br (centres unmarked) [Compound 91]
Log P (pH 2.7): 3.8^[a]

CCOC(=O)C(C#N)=C(NC(C)c1nc(C)c(C)s1)c1sccc1Br (centres unmarked) [Compound 92]
Log P (pH 2.7): 3.8^[a]

CCOC(=O)C(C#N)=C(NC(c1cc2ccccc2s1)C(F)(F)F)c1conc1C (centres unmarked) [Compound 93]
Log P (pH 2.7): 4.24^[a]

CCOC(=O)C(C#N)=C(NC(C)c1nc(C)c(C)s1)c1c(C)nn(C)c1Cl (centres unmarked) [Compound 94]
Log P (pH 2.7): 3.12^[a]

CCOC(=O)C(C#N)=C(NCc1nccs1)c1sccc1C(F)(F)F [Compound 95]
Log P (pH 2.7): 2.82^[a]

CCOC(=O)C(C#N)=C(NC(C)c1nccs1)c1sccc1C(F)(F)F (centres unmarked) [Compound 96]
Log P (pH 2.7): 3.31^[a]

CCOC(=O)C(C#N)=C(NC(C)c1nc(C)c(C)s1)c1sccc1C(F)(F)F (centres unmarked) [Compound 97]
Log P (pH 2.7): 3.92^[a]

CCOC(=O)C(C#N)=C(NC(C)c1nccs1)c1c(C)nn(C)c1Cl (centres unmarked) [Compound 98]
Log P (pH 2.7): 2.52^[a]

CCOC(=O)C(C#N)=C(NCc1ccccn1)c1sccc1Br [Compound 99]
Log P (pH 2.7): 2.61^[a]

CCOC(=O)C(C#N)=C(NC(C)c1ccccn1)c1sccc1Br (centres unmarked) [Compound 100]
Log P (pH 2.7): 3.1^[a]

CCOC(=O)C(C#N)=C(NCc1ccccn1)c1sccc1C(F)(F)F [Compound 102]
Log P (pH 2.7): 2.84^[a]

CCOC(=O)C(C#N)=C(NC(C)c1ccccn1)c1sccc1C(F)(F)F (centres unmarked) [Compound 103]
Log P (pH 2.7): 3.27^[a]

CCOC(=O)C(C#N)=C(NCc1nccs1)c1ccsc1Br [Compound 104]
Log P (pH 2.7): 2.66^[a]

CCOC(=O)C(C#N)=C(NC(C)c1nccs1)c1ccsc1Br (centres unmarked) [Compound 105]
Log P (pH 2.7): 3.1^[a]

CCOC(=O)C(C#N)=C(NC(C)Cc1c[nH]c2ccccc12)c1ccsc1Br (centres unmarked) [Compound 106]
Log P (pH 2.7): 3.8^[a]

CCOC(=O)C(C#N)=C(NC(c1cc2ccccc2s1)C(F)(F)F)c1sccc1C(F)(F)F (centres unmarked) [Compound 107]
Log P (pH 2.7): 4.89^[a]

CCOC(=O)C(C#N)=C(NC(C)Cc1c[nH]c2ccccc12)c1sccc1C(F)(F)F (centres unmarked) [Compound 108]
Log P (pH 2.7): 3.94^[a]

COC(=O)C(C#N)=C(NC(C)c1cccnc1)c1cccnc1Cl (centres unmarked) [Compound 109]
Log P (pH 2.7): 0.82^[a]

COC(=O)C(C#N)=C(NC(C)c1ccccn1)c1cccnc1Cl (centres unmarked) [Compound 110]
Log P (pH 2.7): 1.99^[a]

CCOC(=O)C(C#N)=C(NC(C)c1nc(C)c(C)s1)c1ccsc1Br (centres unmarked) [Compound 112]
Log P (pH 2.7): 3.7^[a]

CCOC(=O)C(C#N)=C(NC(C)Cc1cc2ccccc2[nH]1)c1c(C)nn(C)c1Cl (centres unmarked) [Compound 113]
Log P (pH 2.7): 3.24^[a]

CCOC(=O)C(C#N)=C(NCc1ccccn1)c1ccsc1Br [Compound 115]
Log P (pH 2.7): 2.53^[a]

CCOC(=O)C(C#N)=C(NC(C)c1ccccn1)c1ccsc1Br (centres unmarked) [Compound 116]
Log P (pH 2.7): 3.1^[a]

CCOC(=O)C(C#N)=C(NC(C)C1CCCO1)c1cc(C)oc1C (centres unmarked) [Compound 118]
Log P (pH 2.7): 3.27^[a]

CCOC(=O)C(C#N)=C(NC1CCCCNC1=O)c1cc(C)oc1C (centres unmarked) [Compound 119]
Log P (pH 2.7): 2.14^[a]

COC(=O)C(C#N)=C(NC1COC1)c1cccnc1Cl [Compound 120]
Log P (pH 2.7): 1.35^[a]

COC(=O)C(C#N)=C(NC(CN1CCOCC1)C1CC1)c1cccnc1Cl (centres unmarked) [Compound 121]
Log P (pH 2.7): 1.38^[a]

COC(=O)C(C#N)=C(NC1CSC1)c1cccnc1Cl [Compound 122]
Log P (pH 2.7): 2.08^[a]

COC(=O)C(C#N)=C(NC1CCCCNC1=O)c1cccnc1Cl (centres unmarked) [Compound 123]
Log P (pH 2.7): 1.57^[a]

COC(=O)C(C#N)=C(NC(C)c1ncc(Br)cc1Cl)c1cccnc1Cl (centres unmarked) [Compound 124]
Log P (pH 2.7): 3.24^[a]

COC(=O)C(C#N)=C(NC1CCS(=O)(=O)C1)c1cccnc1Cl (centres unmarked) [Compound 125]
Log P (pH 2.7): 1.33^[a]

COC(=O)C(C#N)=C(NC(C)C1CCCO1)c1cccnc1Cl (centres unmarked) [Compound 126]
Log P (pH 2.7): 2.17^[a]

CCOC(=O)C(C#N)=C(NC(C)Cn1nc(C(F)(F)C(F)(F)F)nc1SC)c1cccnc1Cl (centres unmarked) [Compound 127]
Log P (pH 7.5): 3.66

COC(=O)C(C#N)=C(NCc1nccs1)c1sc(C)nc1C(F)(F)F [Compound 132]
Log P (pH 2.7): 2.33^[a]

COC(=O)C(C#N)=C(NCc1ccccn1)c1sc(C)nc1C(F)(F)F [Compound 134]
Log P (pH 2.7): 2.37^[a]

CCOC(=O)C(C#N)=C(NCc1nccs1)c1cn(C)nc1C(F)(F)F [Compound 138]
Log P (pH 2.7): 2.43^[a]

CCOC(=O)C(C#N)=C(NCc1ccccn1)c1cn(C)nc1C(F)(F)F [Compound 139]
Log P (pH 2.7): 2.36^[a]

CCOC(=O)C(C#N)=C(NCc1nccs1)c1sc(C)nc1C(F)(F)F [Compound 141]
Log P (pH 2.7): 2.66^[a]

CCOC(=O)C(C#N)=C(NCc1ccccn1)c1sc(C)nc1C(F)(F)F [Compound 144]
Log P (pH 2.7): 2.7^[a]

CCOC(=O)/C(C#N)=C(\NC(C)c1nccs1)c1sccc1Cl (centres unmarked) [Compound 149]
Log P (pH 2.7): 3.09^[a]

CCOC(=O)/C(C#N)=C(\NC(C)c1nc(C)c(C)s1)c1sccc1Cl (centres unmarked) [Compound 150]
Log P (pH 2.7): 3.76^[a]

CCOC(=O)/C(C#N)=C(\NC(C)Cc1c[nH]c2ccccc12)c1sccc1Cl (centres unmarked) [Compound 151]
Log P (pH 2.7): 3.8^[a]

CCOC(=O)/C(C#N)=C(\NCc1nccs1)c1sccc1Cl [Compound 153]
Log P (pH 2.7): 2.63^[a]

CCOC(=O)C(C#N)=C(NCc1ccccn1)c1c(C(F)F)nn(C)c1Cl [Compound 155]
Log P (pH 2.7): 2.37^[a]

CCOC(=O)C(C#N)=C(NCc1ccccn1)c1sccc1Cl [Compound 159]
Log P (pH 2.7): 2.56^[a]

CCOC(=O)C(C#N)=C(NCc1nccs1)c1ccsc1I [Compound 161]
Log P (pH 2.7): 2.68^[a]

CCOC(=O)C(C#N)=C(NCc1ccccn1)c1ccsc1I [Compound 166]
Log P (pH 2.7): 2.56^[a]

CCOC(=O)C(C#N)=C(NCc1nc2ccccc2s1)c1sccc1Br [Compound 170]
Log P (pH 2.7): 3.53^[a]

CCOC(=O)C(C#N)=C(NCc1nc(C(F)(F)F)cs1)c1sccc1Br [Compound 171]
Log P (pH 2.7): 3.37^[a]

CCOC(=O)C(C#N)=C(NCc1nc(C)cs1)c1sccc1C(F)(F)F [Compound 175]
Log P (pH 2.7): 3.11^[a]

CCOC(=O)C(C#N)=C(NCc1nc2ccccc2s1)c1sccc1C(F)(F)F [Compound 176]
Log P (pH 2.7): 3.67^[a]

CCOC(=O)C(C#N)=C(NCc1nc(C(F)(F)F)cs1)c1sccc1C(F)(F)F [Compound 177]
Log P (pH 2.7): 3.51^[a]

COC(=O)C(C#N)=C(NCc1nc(C)cs1)c1sc(C)nc1C(F)(F)F [Compound 181]
Log P (pH 2.7): 2.58^[a]

COC(=O)C(C#N)=C(NCc1ncc(C)s1)c1sc(C)nc1C(F)(F)F [Compound 183]
Log P (pH 2.7): 2.63^[a]

COC(=O)C(C#N)=C(NCc1nc2ccccc2s1)c1sc(C)nc1C(F)(F)F [Compound 184]
Log P (pH 2.7): 3.15^[a]

COC(=O)C(C#N)=C(NCc1nc(C(F)(F)F)cs1)c1sc(C)nc1C(F)(F)F [Compound 185]
Log P (pH 2.7): 3.06^[a]

CCOC(=O)C(C#N)=C(NC(C)c1nc(C)cs1)c1cn(C)nc1C(F)F (centres unmarked) [Compound 188]
Log P (pH 2.7): 2.65^[a]

CCOC(=O)C(C#N)=C(NCc1nc(C)cs1)c1cn(C)nc1C(F)F [Compound 189]
Log P (pH 2.7): 2.3^[a]

CCOC(=O)C(C#N)=C(NC(C)c1ncc(C)s1)c1cn(C)nc1C(F)F (centres unmarked) [Compound 190]
Log P (pH 2.7): 2.68^[a]

CCOC(=O)C(C#N)=C(NCc1nc2ccccc2s1)c1cn(C)nc1C(F)F [Compound 191]
Log P (pH 2.7): 2.82^[a]

CCOC(=O)C(C#N)=C(NCc1nc(C(F)(F)F)cs1)c1cn(C)nc1C(F)F [Compound 192]
Log P (pH 2.7): 2.78^[a]

CCOC(=O)C(C#N)=C(NC(C)C1CCCO1)c1sc(C)nc1C(F)(F)F (centres unmarked) [Compound 193]
Log P (pH 2.7): 3.29^[a]

CCOC(=O)C(C#N)=C(NC(C)c1nc(C)cs1)c1sc(C)nc1C(F)(F)F (centres unmarked) [Compound 194]
Log P (pH 2.7): 3.42^[a]

CCOC(=O)C(C#N)=C(NCc1nc(C)cs1)c1sc(C)nc1C(F)(F)F [Compound 195]
Log P (pH 2.7): 2.9^[a]

CCOC(=O)C(C#N)=C(NC(C)c1ncc(C)s1)c1sc(C)nc1C(F)(F)F (centres unmarked) [Compound 196]
Log P (pH 2.7): 3.46^[a]

CCOC(=O)C(C#N)=C(NCc1nc2ccccc2s1)c1sc(C)nc1C(F)(F)F [Compound 197]
Log P (pH 2.7): 3.48^[a]

CCOC(=O)C(C#N)=C(NCc1nc(C(F)(F)F)cs1)c1sc(C)nc1C(F)(F)F [Compound 198]
Log P (pH 2.7): 3.35^[a]

CCOC(=O)C(C#N)=C(NC(C)C1CCCO1)c1cn(C)nc1C(F)F (centres unmarked) [Compound 199]
Log P (pH 2.7): 2.58^[a]

CCOC(=O)C(C#N)=C(NCc1ccc(F)cn1)c1sccc1Br [Compound 200]
Log P (pH 2.7): 3.04^[a]

CCOC(=O)C(C#N)=C(NCc1ccc(F)cn1)c1sccc1C(F)(F)F [Compound 201]
Log P (pH 2.7): 3.19^[a]

COC(=O)C(C#N)=C(NCc1ccc(F)cn1)c1sc(C)nc1C(F)(F)F [Compound 202]
Log P (pH 2.7): 2.67^[a]

CCOC(=O)C(C#N)=C(NCc1ccc(F)cn1)c1cn(C)nc1C(F)F [Compound 203]
Log P (pH 2.7): 2.33^[a]
